Molecules are shown by their SMILES.

Usually IC50 stands for the midpoint of a concentration-inhibition curve. A higher IC50 goes with a need for much substance.

In test [1] the target is Carboxylic ester hydrolase (Equus caballus, UniProt Q9N1N9). Description: Anticholinesterase Activity Assays. To be noted: pH 8. As to the method:
(§1) The substrates of the reaction were acetylthiocholine iodide and butyrylthiocholine iodide. 5,5'-dithio-bis(2-nitrobenzoic) acid (DTNB) was used for the measurement of the anticholinesterase activity. The solutions of the samples and galantamine in n-propanol were prepared at concentration of 4000 µg/mL. […] 10 µL of DTNB solution was prepared by adding 2.0 mL of pH 7.0 and 4.0 mL of pH 8.0 phosphate buffers to a mixture of 1.0 mL of 16 mg/mL DTNB and 7.5 mg/mL NaHCO3 in pH 7.0 phosphate buffers. The reaction was initiated by the addition of 10 µL (7.1 mM) acetylthiocholine iodide (or 0.79 mM butyrylthiocholine iodide). Propyl alcohol was used as a solvent to controls. The hydrolysis of these substrates was monitored at 412 nm.

A further test addresses Acetylcholinesterase (Electrophorus electricus, UniProt O42275). Briefly: Anticholinesterase Activity Assays. The following applies: pH 8. As for the experimental part: as §1

Chain of Carboxylic ester hydrolase (Q9N1N9 whole entry): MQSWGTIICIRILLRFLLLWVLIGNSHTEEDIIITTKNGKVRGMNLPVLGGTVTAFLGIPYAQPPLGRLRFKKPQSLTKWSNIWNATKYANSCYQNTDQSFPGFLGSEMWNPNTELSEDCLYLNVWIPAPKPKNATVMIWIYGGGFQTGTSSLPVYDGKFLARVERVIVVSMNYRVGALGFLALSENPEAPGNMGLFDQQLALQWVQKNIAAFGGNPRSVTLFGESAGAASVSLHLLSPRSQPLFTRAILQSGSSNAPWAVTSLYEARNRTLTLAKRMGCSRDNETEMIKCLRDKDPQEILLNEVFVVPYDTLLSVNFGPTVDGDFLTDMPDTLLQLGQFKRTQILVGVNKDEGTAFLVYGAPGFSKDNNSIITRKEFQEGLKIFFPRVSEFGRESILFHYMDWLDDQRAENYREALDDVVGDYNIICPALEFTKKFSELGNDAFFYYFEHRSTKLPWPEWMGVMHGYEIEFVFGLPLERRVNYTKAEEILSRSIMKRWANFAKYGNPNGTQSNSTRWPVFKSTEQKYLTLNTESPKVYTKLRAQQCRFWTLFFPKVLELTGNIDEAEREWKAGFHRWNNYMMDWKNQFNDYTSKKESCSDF
Chain of Acetylcholinesterase (O42275 whole entry): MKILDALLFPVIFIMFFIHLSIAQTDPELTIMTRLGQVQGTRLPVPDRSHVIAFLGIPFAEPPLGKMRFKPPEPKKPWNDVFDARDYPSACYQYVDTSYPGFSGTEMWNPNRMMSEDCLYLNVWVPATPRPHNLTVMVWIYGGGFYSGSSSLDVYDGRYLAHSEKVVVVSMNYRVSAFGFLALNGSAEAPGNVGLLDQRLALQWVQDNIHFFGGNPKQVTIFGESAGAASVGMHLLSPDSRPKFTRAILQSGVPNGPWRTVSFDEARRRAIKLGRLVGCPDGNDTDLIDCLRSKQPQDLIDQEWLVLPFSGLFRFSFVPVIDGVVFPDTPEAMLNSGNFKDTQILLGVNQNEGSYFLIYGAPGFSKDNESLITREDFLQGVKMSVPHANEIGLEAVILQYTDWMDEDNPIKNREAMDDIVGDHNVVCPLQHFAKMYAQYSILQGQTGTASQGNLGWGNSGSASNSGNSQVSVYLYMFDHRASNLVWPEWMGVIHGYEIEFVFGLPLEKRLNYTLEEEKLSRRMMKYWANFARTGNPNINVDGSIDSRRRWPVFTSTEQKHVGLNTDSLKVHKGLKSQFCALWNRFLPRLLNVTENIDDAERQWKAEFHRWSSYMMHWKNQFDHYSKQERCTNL

`COc1cccc2cc(-c3csc(NC(=O)Nc4ccc(I)cc4)n3)c(=O)oc12` [1-(4-Iodophenyl)-3-(4-(8-methoxy-2-oxo-2H-chromen-3-yl)thiazol-2-yl)urea (e26)]: the half-maximal inhibitory concentration (IC50) in test [1] worked out at 159 µM; against Acetylcholinesterase, 61.3 µM.
For `COc1ccc(NC(=O)Nc2nc(-c3cc4ccccc4oc3=O)cs2)cc1` [1-(4-Methoxyphenyl)-3-(4-(2-oxo-2H-chromen-3-yl)thiazol-2-yl)urea (e3)] the same measures were 82.5 µM and 95.9 µM.
For `COc1ccc(NC(=O)Nc2nc(-c3cc4cc([N+](=O)[O-])ccc4oc3=O)cs2)cc1` [1-(4-Methoxyphenyl)-3-(4-(6-nitro-2-oxo-2H-chromen-3-yl)thiazol-2-yl)urea (e28)] the same measures were 118 µM and more than 200 µM.
The matching figures for `O=C(Nc1ccc([N+](=O)[O-])cc1)Nc1nc(-c2cc3ccccc3oc2=O)cs1` [1-(4-Nitrophenyl)-3-(4-(2-oxo-2H-chromen-3-yl)thiazol-2-yl)urea (e6)]: 52.7 µM and 74.8 µM.
As to `Cc1ccc(NC(=O)Nc2nc(-c3cc4ccccc4oc3=O)cs2)cc1` [1-(p-tolyl)-3-(4-(2-oxo-2H-chromen-3-yl)thiazol-2-yl)urea (e4)], the concentration for half-maximal inhibition (IC50) was found to be 54.8 µM in test [1] and 81.5 µM at Acetylcholinesterase.
As to `O=C(Nc1ccccc1)Nc1nc(-c2cc3ccccc3oc2=O)cs1` [1-Phenyl-3-(4-(2-oxo-2H-chromen-3-yl)thiazol-2-yl)urea (e5)], the results for the IC50 (in test [1]; at Acetylcholinesterase) were 74.6 µM and 73.2 µM, respectively.

The values are drawn from BindingDB's records for doi:10.1016/j.bioorg.2015.02.002 (Bezmialem Vakif University, 2015).
